Numbers after ± are expanded uncertainties.
Assays:
[1] = 101.33 kPa, Liquid; for viscosity: Concentric cylinders viscometry; for mass density: Pycnometric method
[2] = molar heat capacity at constant pressure; conditions: 101.33 kPa, Liquid, Small sample (50 mg) DSC

In the case of `NCCO` [2-aminoethan-1-ol], the viscosity ([1]; 303.15 K) is reported as 15.36 ± 0.32 mPa·s, the mass density ([1]; 303.15 K) is reported as 1008.7 ± 1.3 kg/m3 and the viscosity ([1]; 313.15 K) is reported as 10.26 ± 0.21 mPa·s. The mass density ([1]; 313.15 K) was 1000.4 ± 1.3 kg/m3, the viscosity ([1]; 323.15 K) was 7.19 ± 0.15 mPa·s and the mass density ([1]; 323.15 K) was 992.5 ± 1.3 kg/m3. For the same compound, the “molar heat capacity at constant pressure” value ([2]; 303.15 K) was 163.7 ± 3.7 J/K/mol, the “molar heat capacity at constant pressure” value ([2]; 313.15 K) was 167.98 ± 3.7 J/K/mol and the “molar heat capacity at constant pressure” value ([2]; 323.15 K) was 172.25 ± 3.7 J/K/mol.

— the NIST ThermoML archive (doi:10.1021/je101144k)
